Where only a bound is given, the exact number is not on record here.

The target in one experiment is human capsaicin receptor (VR1) (Homo sapiens, UniProt Q8NER1). Kind of experiment: Capsaicin receptor binding assay ([3H]RTX competition, VR1-transfected HEK293 membranes).
human capsaicin receptor (VR1), sequence (Q8NER1 whole entry): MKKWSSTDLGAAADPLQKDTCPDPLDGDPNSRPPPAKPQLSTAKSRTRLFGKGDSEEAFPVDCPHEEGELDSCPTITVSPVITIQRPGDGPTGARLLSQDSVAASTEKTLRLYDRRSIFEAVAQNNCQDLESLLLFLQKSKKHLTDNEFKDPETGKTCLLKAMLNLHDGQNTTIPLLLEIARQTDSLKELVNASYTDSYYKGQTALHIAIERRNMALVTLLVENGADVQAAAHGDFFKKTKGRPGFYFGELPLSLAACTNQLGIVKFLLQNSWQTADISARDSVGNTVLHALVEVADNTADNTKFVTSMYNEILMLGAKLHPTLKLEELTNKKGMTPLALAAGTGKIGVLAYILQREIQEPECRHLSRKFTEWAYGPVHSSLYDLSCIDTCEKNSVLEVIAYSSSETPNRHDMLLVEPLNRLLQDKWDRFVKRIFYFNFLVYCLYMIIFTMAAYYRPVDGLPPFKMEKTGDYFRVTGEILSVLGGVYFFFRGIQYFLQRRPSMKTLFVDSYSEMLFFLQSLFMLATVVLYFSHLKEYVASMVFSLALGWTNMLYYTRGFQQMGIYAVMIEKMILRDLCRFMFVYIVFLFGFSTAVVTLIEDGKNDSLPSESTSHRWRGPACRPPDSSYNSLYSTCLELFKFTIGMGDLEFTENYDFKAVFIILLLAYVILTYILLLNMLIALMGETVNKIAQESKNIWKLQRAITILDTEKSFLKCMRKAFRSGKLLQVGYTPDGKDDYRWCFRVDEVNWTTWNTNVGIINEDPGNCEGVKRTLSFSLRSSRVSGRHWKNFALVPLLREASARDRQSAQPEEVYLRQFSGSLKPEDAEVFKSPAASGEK
Conditions: not given
With `OCC1CCN(CCCc2nc(Nc3ccc(C(F)(F)F)cc3)c3ccc(-c4ncccc4C(F)(F)F)cc3n2)CC1` [Compound 569, (1-{3-[4-(4-Trifluoromethyl-phenylamino)-7-(3-trifluoromethyl-pyridin-2-yl)-quinazolin-2-yl]-propyl}-piperidin-4-yl)-methanol], the inhibition constant (Ki) (usually the dissociation constant of the complex between target and ligand, obtained from inhibition or displacement) is below 1 µM. Regarding `OC1CCN(CCCc2nc(Nc3ccc(C(F)(F)F)cc3)c3ccc(-c4ncccc4C(F)(F)F)cc3n2)CC1` [Compound 570], the Ki was below 1 µM.

The compound `OC1CCCN(CCCc2nc(Nc3ccc(C(F)(F)F)cc3)c3ccc(-c4ncccc4C(F)(F)F)cc3n2)C1` (stereo not shown) [Compound 571, 1-{3-[4-(4-Trifluoromethyl-phenylamino)-7-(3-trifluoromethyl-pyridin-2-yl)-quinazolin-2-yl]-propyl}piperidin-3-ol] came in with an inhibitory constant (Ki) below 1 µM. Compound `CC1CCCN(CCCc2nc(Nc3ccc(C(F)(F)F)cc3)c3ccc(-c4ncccc4C(F)(F)F)cc3n2)C1` (stereo not shown) [Compound 572, [2-[3-(3-Methyl-piperidin-1-yl)-propyl]-7-(3-trifluoromethyl-pyridin-2-yl)-quinazolin-4-yl]-(4-trifluoromethyl-phenyl)-amine] displayed a Ki below 1 µM. The same measure, in the same setting: to `CN1CCN(CCCc2nc(Nc3ccc(C(F)(F)F)cc3)c3ccc(-c4ncccc4C(F)(F)F)cc3n2)CC1` [Compound 573, [2-[3-(4-Methyl-piperazin-1-yl)-propyl]-7-(3-trifluoromethyl-pyridin-2-yl)-quinazolin-4-yl]-(4-trifluoromethyl-phenyl)-amine] belongs below 1 µM; to `FC(F)(F)c1ccc(Nc2nc(CNCc3ccccc3)nc3cc(-c4ncccc4C(F)(F)F)ccc23)cn1` [Compound 574, [2-(Benzylamino-methyl)-7-(3-trifluoromethyl-pyridin-2-yl)-quinazolin-4-yl]-(6-trifluoromethyl-pyridin-3-yl)-amine], below 1 µM. On the same count and under the same terms, for `CN(Cc1ccccc1)Cc1nc(Nc2ccc(C(F)(F)F)nc2)c2ccc(-c3ncccc3C(F)(F)F)cc2n1` [Compound 575, [2-[(Benzyl-methyl-amino)-methyl]-7-(3-trifluoromethyl-pyridin-2-yl)-quinazolin-4-yl]-(6-trifluoromethyl-pyridin-3-yl)-amine] the value was below 1 µM. The same measure, in the same setting: for `COc1ccccc1CNCc1nc(Nc2ccc(C(F)(F)F)nc2)c2ccc(-c3ncccc3C(F)(F)F)cc2n1` [Compound 576, [2-[(2-Methoxy-benzylamino)-methyl]-7-(3-trifluoromethyl-pyridin-2-yl)-quinazolin-4-yl]-(6-trifluoromethyl-pyridin-3-yl)-amine] the value was below 1 µM; for `COc1ccc(CNCc2nc(Nc3ccc(C(F)(F)F)nc3)c3ccc(-c4ncccc4C(F)(F)F)cc3n2)cc1` [Compound 577, [2-[(4-Methoxy-benzylamino)-methyl]-7-(3-trifluoromethyl-pyridin-2-yl)-quinazolin-4-yl]-(6-trifluoromethyl-pyridin-3-yl)-amine], below 1 µM; for `FC(F)(F)c1ccc(Nc2nc(CNCc3ccccn3)nc3cc(-c4ncccc4C(F)(F)F)ccc23)cn1` [Compound 578, [2-{[(Pyridin-2-ylmethyl)-amino]-methyl}-7-(3-trifluoromethyl-pyridin-2-yl)-quinazolin-4-yl]-(6-trifluoromethyl-pyridin-3-yl)-amine], below 1 µM. On to `FC(F)(F)c1ccc(Nc2nc(Cn3ccnc3)nc3cc(-c4ncccc4C(F)(F)F)ccc23)cn1` [Compound 579, [2-Imidazol-1-ylmethyl-7-(3-trifluoromethyl-pyridin-2-yl)-quinazolin-4-yl]-(6-trifluoromethyl-pyridin-3-yl)-amine], for which the Ki was below 1 µM. Regarding `O=S(=O)(c1ccc(Nc2nc(CN3CCOCC3)nc3cc(-c4ncccc4C(F)(F)F)ccc23)cc1)C(F)(F)F` [Compound 580, [2-Morpholin-4-ylmethyl-7-(3-trifluoromethyl-pyridin-2-yl)-quinazolin-4-yl]-(4-trifluoromethanesulfonyl-phenyl)-amine], the Ki is below 1 µM. The same measure, in the same setting: to `CC1CN(Cc2nc(Nc3ccc(S(=O)(=O)C(F)(F)F)cc3)c3ccc(-c4ncccc4C(F)(F)F)cc3n2)CC(C)O1` (stereo not shown) [Compound 581, [2-(2,6-Dimethyl-morpholin-4-ylmethyl)-7-(3-trifluoromethyl-pyridin-2-yl)-quinazolin-4-yl]-(4-trifluoromethanesulfonyl-phenyl)-amine] belongs below 1 µM; to `C[C@@H]1CN(Cc2nc(Nc3ccc(S(=O)(=O)C(F)(F)F)cc3)c3ccc(-c4ncccc4C(F)(F)F)cc3n2)C[C@H](C)O1` [Compound 582, [2-(2,6-Dimethyl-morpholin-4-ylmethyl)-7-(3-trifluoromethyl-pyridin-2-yl)-quinazolin-4-yl]-(4-trifluoromethanesulfonyl-phenyl)-amine (cis)], below 1 µM; to `CCCOC(=O)N1CCN(CCc2nc(Nc3ccc(C(F)(F)F)cc3)c3ccc(-c4ncccc4C(F)(F)F)cc3n2)CC1` [Compound 585, 4-{2-[4-(4-Trifluoromethyl-phenylamino)-7-(3-trifluoromethyl-pyridin-2-yl)-quinazolin-2-yl]-ethyl}-piperazine-1-carboxylic acid propyl ester], below 1 µM.

In turn, `OC1CCN(CCc2nc(Nc3ccc(C(F)(F)F)cc3)c3ccc(-c4ncccc4C(F)(F)F)cc3n2)CC1` [Compound 586, [2-(4-Hydroxy-piperidin-1-ylethyl)-7-(3-trifluoromethyl-pyridin-2-yl)-quinazolin-4-yl]-(4-trifluoromethyl-phenyl)-amine] yielded an inhibition constant Ki below 1 µM. On to `CC1CCCN(CCc2nc(Nc3ccc(C(F)(F)F)cc3)c3ccc(-c4ncccc4C(F)(F)F)cc3n2)C1` (stereo not shown) [Compound 587, [2-(3-Methyl-piperidin-1-ylethyl)-7-(3-trifluoromethyl-pyridin-2-yl)-quinazolin-4-yl]-(4-trifluoromethyl-phenyl)-amine], for which the Ki is below 1 µM.

As to `OC1CCCN(CCc2nc(Nc3ccc(C(F)(F)F)cc3)c3ccc(-c4ncccc4C(F)(F)F)cc3n2)C1` (stereo not shown) [Compound 588, [2-(3-Hydroxy-piperidin-1-ylethyl)-7-(3-trifluoromethyl-pyridin-2-yl)-quinazolin-4-yl]-(4-trifluoromethyl-phenyl)-amine], the inhibition constant (Ki) was below 1 µM. Consider `NC(=O)C1CCN(CCc2nc(Nc3ccc(C(F)(F)F)cc3)c3ccc(-c4ncccc4C(F)(F)F)cc3n2)CC1` [Compound 589, 1-{2-[4-(4-Trifluoromethyl-phenylamino)-7-(3-trifluoromethyl-pyridin-2-yl)-quinazolin-2-yl]-ethyl}-piperidine-4-carboxylic acid amide], for which the Ki was below 1 µM. In turn, `CCOC(=O)C1CCCN(CCc2nc(Nc3ccc(C(F)(F)F)cc3)c3ccc(-c4ncccc4C(F)(F)F)cc3n2)C1` (stereo not shown) [Compound 590, 1-{2-[4-(4-Trifluoromethyl-phenylamino)-7-(3-trifluoromethyl-pyridin-2-yl)-quinazolin-2-yl]-ethyl}-piperidine-3-carboxylic acid ethyl ester] returned a Ki below 1 µM.

The compound `CCOC(=O)C1CCN(CCc2nc(Nc3ccc(C(F)(F)F)cc3)c3ccc(-c4ncccc4C(F)(F)F)cc3n2)CC1` [Compound 592, 1-{2-[4-(4-Trifluoromethyl-phenylamino)-7-(3-trifluoromethyl-pyridin-2-yl)-quinazolin-2-yl]-ethyl}-piperidine-4-carboxylic acid ethyl ester] gave an inhibition constant (Ki) below 1 µM. As to `C[C@@H]1CN(Cc2nc(Nc3ccc(S(=O)(=O)C(F)(F)F)cc3)c3ncc(-c4ncccc4C(F)(F)F)cc3n2)C[C@H](C)O1` [Compound 593, [2-(2,6-Dimethyl-morpholin-4-ylmethyl)-7-(3-trifluoromethyl-pyridin-2-yl)-pyrido[3,2-d]pyrimidin-4-yl]-(4-trifluoromethanesulfonyl-phenyl)-amine (cis)], the Ki is below 1 µM. In turn, `CCCS(=O)(=O)c1ccc(Nc2nc(CN3C[C@@H](C)O[C@@H](C)C3)nc3cc(-c4ncccc4C(F)(F)F)cnc23)cc1` [Compound 594, [2-(2,6-Dimethyl-morpholin-4-ylmethyl)-7-(3-trifluoromethyl-pyridin-2-yl)-pyrido[3,2-d]pyrimidin-4-yl]-[4-(propane-1-sulfonyl)-phenyl]-amine (cis)] yielded a Ki below 1 µM. `CC(C)S(=O)(=O)c1ccc(Nc2nc(CN3C[C@@H](C)O[C@@H](C)C3)nc3cc(-c4ncccc4C(F)(F)F)cnc23)cc1` [Compound 595, [2-(2,6-Dimethyl-morpholin-4-ylmethyl)-7-(3-trifluoromethyl-pyridin-2-yl)-pyrido[3,2-d]pyrimidin-4-yl]-[4-(propane-2-sulfonyl)-phenyl]-amine (cis)] gave a Ki below 1 µM. In turn, `C[C@@H]1CN(Cc2nc(Nc3ccc(C(F)(F)F)cc3)c3ccc(-c4ncccc4Cl)cc3n2)C[C@H](C)O1` [Compound 598, [7-(3-Chloro-pyridin-2-yl)-2-(2,6-dimethyl-morpholin-4-ylmethyl)-quinazolin-4-yl]-(4-trifluoromethyl-phenyl)-amine (cis)] returned a Ki below 1 µM.

Compound `C[C@@H]1CN(Cc2nc(Nc3ccc(C(F)(F)F)nc3)c3ccc(-c4ncccc4Cl)cc3n2)C[C@H](C)O1` [Compound 599, [7-(3-Chloro-pyridin-2-yl)-2-(2,6-dimethyl-morpholin-4-ylmethyl)-quinazolin-4-yl]-(6-trifluoromethyl-pyridin-3-yl)-amine (cis)] came in with a Ki below 1 µM. Turning to `C[C@@H]1CN(Cc2nc(Nc3ccc(S(=O)(=O)C(F)(F)F)cc3)c3ccc(-c4ncccc4Cl)cc3n2)C[C@H](C)O1` [Compound 602, [7-(3-Chloro-pyridin-2-yl)-2-(2,6-dimethyl-morpholin-4-ylmethyl)-quinazolin-4-yl]-(4-trifluoromethanesulfonyl-phenyl)-amine (cis)], the Ki is below 1 µM.

The same experiment, now with this note: Table III; capsaicin receptor binding.
The compound `CC1CN(Cc2nc(Nc3ccc(C(C)(C)C)cc3)c3ncc(-c4ncccc4C(F)(F)F)cc3n2)CC(C)O1` (stereo not drawn) [Compound 583, (4-tert-Butyl-phenyl)-[2-(2,6-dimethyl-morpholin-4-ylmethyl)-7-(3-trifluoromethyl-pyridin-2-yl)-pyrido[3,2-d]pyrimidin-4-yl]-amine (cis)] came in with a Ki below 1 µM.
